Results taken from US20240358681A1, “METHODS OF USE OF PPAR AGONIST COMPOUNDS AND PHARMACEUTICAL COMPOSITIONS THEREOF” (Mitobridge, Inc., priority 2021, published 2024).
pEC50: −log10 of the molar value.

Tests used:
PPARδ = molecular target: T1, PPARδ (Mus musculus, UniProt P35396); test: Mouse EC50 (PPARδ agonist)
T1 sequence (P35396 1-440): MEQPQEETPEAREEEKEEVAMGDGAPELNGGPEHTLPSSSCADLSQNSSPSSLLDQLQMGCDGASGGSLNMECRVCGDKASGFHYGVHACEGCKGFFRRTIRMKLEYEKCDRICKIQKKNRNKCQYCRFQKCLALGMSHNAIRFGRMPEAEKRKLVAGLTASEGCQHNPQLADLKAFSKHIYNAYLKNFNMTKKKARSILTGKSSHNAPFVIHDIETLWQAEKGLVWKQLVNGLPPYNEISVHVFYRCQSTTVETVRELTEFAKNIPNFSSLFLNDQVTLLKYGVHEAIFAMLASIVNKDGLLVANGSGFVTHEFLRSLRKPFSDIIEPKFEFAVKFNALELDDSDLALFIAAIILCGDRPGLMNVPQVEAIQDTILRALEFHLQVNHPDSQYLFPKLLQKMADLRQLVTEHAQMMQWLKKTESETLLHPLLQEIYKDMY

[1] = 52-week monkey GLP toxicity study; assay type: in vivo
LHON/Leigh cells = test: Mitochondrial fatty acid oxidation assay by high-resolution respirometry (palmitate-mediated OXPHOS); assay type: cell-based, human; conditions: Leigh/LHON cell line, 24 hours treatment; FIG. 4B
Experimental: LHON/Leigh cells were treated with DMSO or Compound (I) in complete media supplemented with 0.5 mM carnitine for 24 hours prior to assaying. Treated cells were trypsinized, collected in Krebs-Henseleit Buffer (KHB) and pelleted.
Palmitate-mediated OXPHOS was measured using an Oxygraph-2k (Oroboros Instruments). Cells (1×10^6) in KHB were loaded into each chamber with 250 μM BSA or BSA-conjugated palmitate. KHB was added to reach a final volume of 2 mL. Respiration was measured at 37° C. as previously described in Zhang, Z., et al., Primary respiratory chain disease causes tissue-specific dysregulation of the global transcriptome and nutrient-sensing signaling network. (1932-6203). Briefly, BSA and BSA-conjugated palmitate treated cells were analyzed simultaneously in two separate chambers. […]
Data were analyzed using DatLab6 software. […] Non-mitochondrial respiration was measured after addition of Rotenone and Antimycin A sequentially (ROX, residual oxygen consumption, background) and subtracted from maximal respiration values. […]

[2] = tested on: PPARδ target genes and FAO genes in quadriceps muscle; test: Gene expression analysis of quadriceps muscle in aged DIO mice; assay type: in vivo, mouse; conditions: 30 mg/kg oral once daily, 5 weeks
Experimental: All animal studies were performed in accordance with Charles River Laboratories animal welfare protocols. Male Diet-Induced Obese (DIO) C57BL/6NTac mice 28 weeks of age were fed a high fat diet. 20 mice were randomized based on bodyweight into two cohorts of 10 mice each. Five mice were assigned to each treatment group in each cohort (i) vehicle or (ii) Compound (I) at 30 mg/kg via (n=10 total animals per treatment). […] Mice were acclimatized to the treadmill room for one hour on days of training or endurance runs. After an initial 5 min exploration period the treadmill belt moved at 5 m/min for 10 min with the motivation grid intensity set to 0.46 mA. Mice required a few visits to the grid to learn to walk/run on the moving belt and avoid the electric grid shock. After two acclimatization periods the mice learned to avoid the electric grid and stay on the moving belt, with fewer visits to the electric grid. The maximum speed for the endurance run was capped at 16.5 m/min based on speed acclimation runs, which represents the speed at which 25% of animals are running in the top ⅔ of the treadmill at a 5° slope. The mice were considered exhausted if they stayed on the electric grid with no limbs on the treadmill belt for 10 seconds.
Before and after the exhaustion run, blood samples were obtained via a tail vein nick. At the end of the study (day 45) whole blood along with gastrocnemius and quadriceps skeletal muscles were collected following CO2 euthanasia.

Cc1cnc(-c2ccc(C(F)(F)F)cc2)n1Cc1ccccc1OCCC[C@@H](C)CC(=O)O [Compound (I), (R)-3-Methyl-6-(2-((5-methyl-2-(4-(trifluoromethyl)phenyl)-1H-imidazol-1-yl)methyl)-phenoxy)hexanoic acid]
pEC50 (PPARδ): 7.85
no observed adverse effect level (NOAEL) [1]: highest tested dose
fatty acid-mediated OXPHOS (LHON/Leigh cells): significantly increased
Angptl4 expression increase in quadriceps muscle ([2]; FIG. 5A): 3.5 fold
Pdk4 expression increase in quadriceps muscle ([2]; FIG. 5B): 2.5 fold
Acadvl expression (FAO gene) ([2]; FIG. 5C-5E): significantly increased
Cpt1a expression (FAO gene) ([2]; FIG. 5C-5E): significantly increased
Slc25a20 expression (FAO gene) ([2]; FIG. 5C-5E): significantly increased
